Target: T1, NHE-1 (Homo sapiens, UniProt P19634)
T1 construct: endogenous in cells; host or cells: HT-29
Test: Evaluation of NHE-1 Inhibition (pHi) in HT-29 cells
Assay type: cell-based
Details: BCECF dye, 50% inhibition of the intracellular pH recovery, read-out: NHE1 HT29 pHi IC50
How it was run: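 Intracellular pH measured with BCECF in HT-29 cells after 24 h culture. Cells dye-loaded 30 min at 37° C, then acid-loaded with NH4Cl-containing choline buffer (pH 7.5) for 30 min at RT. Compounds added on an FDSS6000 fluorescence reader.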

T1 sequence (P19634 whole entry): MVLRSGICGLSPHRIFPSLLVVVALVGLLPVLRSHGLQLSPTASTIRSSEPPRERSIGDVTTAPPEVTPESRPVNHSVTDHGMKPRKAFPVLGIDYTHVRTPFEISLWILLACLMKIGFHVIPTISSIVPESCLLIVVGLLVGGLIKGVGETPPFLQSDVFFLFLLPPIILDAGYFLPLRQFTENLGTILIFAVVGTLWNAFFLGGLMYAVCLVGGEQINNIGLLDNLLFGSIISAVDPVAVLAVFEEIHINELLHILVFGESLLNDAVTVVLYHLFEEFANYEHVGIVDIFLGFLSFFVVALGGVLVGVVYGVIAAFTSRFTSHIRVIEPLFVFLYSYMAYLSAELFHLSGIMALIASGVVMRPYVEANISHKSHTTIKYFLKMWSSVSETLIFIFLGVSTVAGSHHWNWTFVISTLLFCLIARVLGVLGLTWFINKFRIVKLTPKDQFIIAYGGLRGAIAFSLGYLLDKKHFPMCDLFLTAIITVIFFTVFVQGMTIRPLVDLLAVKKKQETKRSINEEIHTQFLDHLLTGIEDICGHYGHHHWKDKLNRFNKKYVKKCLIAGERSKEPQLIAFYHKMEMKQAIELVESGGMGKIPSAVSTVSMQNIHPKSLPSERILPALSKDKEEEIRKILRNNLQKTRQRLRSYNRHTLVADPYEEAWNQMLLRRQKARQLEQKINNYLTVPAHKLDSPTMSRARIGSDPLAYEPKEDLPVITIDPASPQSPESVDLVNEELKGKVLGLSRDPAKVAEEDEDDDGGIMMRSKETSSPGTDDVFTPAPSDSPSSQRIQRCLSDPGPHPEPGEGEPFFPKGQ

Row | Structure (SMILES) | IC50 [nM]
1 | CS(=O)(=O)c1ccc(C(=O)N2CCC(c3ccc(C(=O)NC(=N)N)cc3C(F)(F)F)CC2)cc1 [N-{4-[1-(4-Methanesulfonyl-benzoyl)-piperidin-4-yl]-3-trifluoromethyl-benzoyl}-guanidine] | 21
2 | COc1ccc(C(=O)N2CCC(c3ccc(C(=O)NC(=N)N)cc3C(F)(F)F)CC2)cc1 [N-{4-[1-(4-Methoxy-benzoyl)-piperidin-4-yl]-3-trifluoromethyl-benzoyl}-guanidine] | 195
3 | COc1ccc(C(=O)N2CCC(c3ccc(C(=O)NC(=N)N)cc3C(F)(F)F)CC2)c2ccccc12 [N-{4-[1-(4-Methoxy-naphthalene-1-carbonyl)-piperidin-4-yl]-3-trifluoromethyl-benzoyl}-guanidine] | 320
4 | COCc1ccc(C(=O)N2CCC(c3ccc(C(=O)NC(=N)N)cc3C(F)(F)F)CC2)cc1 [N-{4-[1-(4-Methoxymethyl-benzoyl)-piperidin-4-yl]-3-trifluoromethyl-benzoyl}-guanidine] | 122
5 | CN1CCOc2cc(C(=O)N3CCC(c4ccc(C(=O)NC(=N)N)cc4C(F)(F)F)CC3)ccc21 [N-{4-[1-(4-Methyl-3,4-dihydro-2H-benzo[1,4]oxazine-7-carbonyl)-piperidin-4-yl]-3-trifluoromethyl-benzoyl}-guanidine] | 47
6 | N=C(N)NC(=O)c1ccc(C2CCN(C(=O)c3ccc(-c4cnco4)cc3)CC2)c(C(F)(F)F)c1 [N-{4-[1-(4-Oxazol-5-yl-benzoyl)-piperidin-4-yl]-3-trifluoromethyl-benzoyl}-guanidine] | 109
7 | N=C(N)NC(=O)c1ccc(C2CCN(C(=O)c3ccc(-n4cccn4)cc3)CC2)c(C(F)(F)F)c1 [N-{4-[1-(4-Pyrazol-1-yl-benzoyl)-piperidin-4-yl]-3-trifluoromethyl-benzoyl}-guanidine] | 88
8 | N=C(N)NC(=O)c1ccc(C2CCN(C(=O)c3ccc(N4CCCC4)cc3)CC2)c(C(F)(F)F)c1 [N-{4-[1-(4-Pyrrolidin-1-yl-benzoyl)-piperidin-4-yl]-3-trifluoromethyl-benzoyl}-guanidine] | 250
9 | N=C(N)NC(=O)c1ccc(C2CCN(C(=O)c3ccc(S(=O)(=O)C(F)(F)F)cc3)CC2)c(C(F)(F)F)c1 [N-{4-[1-(4-Trifluoromethanesulfonyl-benzoyl)-piperidin-4-yl]-3-trifluoromethyl-benzoyl}-guanidine] | 230
10 | Cc1cc(C2CCN(C(=O)c3ccc(C#N)cc3)CC2)c(C(F)(F)F)cc1C(=O)NC(=N)N [N-{4-[1-(4-cyano-benzoyl)-piperidin-4-yl]-2-methyl-5-trifluoromethyl-benzoyl}-guanidine] | 36
11 | Cc1cc(C2CCN(C(=O)c3ccc(C#N)cc3)CC2)c(S(C)(=O)=O)cc1C(=O)NC(=N)N [N-{4-[1-(4-cyano-benzoyl)-piperidin-4-yl]-5-methanesulfonyl-2-methyl-benzoyl}-guanidine] | 27
12 | N=C(N)NC(=O)c1ccc(C2CCN(C(=O)c3cncc(-c4ccccc4)c3)CC2)c(C(F)(F)F)c1 [N-{4-[1-(5-Phenyl-pyridine-3-carbonyl)-piperidin-4-yl]-3-trifluoromethyl-benzoyl}-guanidine] | 204
13 | N#Cc1ccc(C(=O)N2CCC(c3ccc(C(=O)NC(=N)N)cc3C(F)(F)F)CC2)cn1 [N-{4-[1-(6-Cyano-pyridine-3-carbonyl)-piperidin-4-yl]-3-trifluoromethyl-benzoyl}-guanidine] | 39
14 | N=C(N)NC(=O)c1ccc(C2CCN(C(=O)c3ccc(O)nc3)CC2)c(C(F)(F)F)c1 [N-{4-[1-(6-Hydroxy-pyridine-3-carbonyl)-piperidin-4-yl]-3-trifluoromethyl-benzoyl}-guanidine] | 21
15 | N=C(N)NC(=O)c1ccc(C2CCN(C(=O)c3ccc(-n4ccnc4)nc3)CC2)c(C(F)(F)F)c1 [N-{4-[1-(6-Imidazol-1-yl-pyridine-3-carbonyl)-piperidin-4-yl]-3-trifluoromethyl-benzoyl}-guanidine] | 14
16 | COc1ccc2cc(C(=O)N3CCC(c4ccc(C(=O)NC(=N)N)cc4C(F)(F)F)CC3)ccc2c1 [N-{4-[1-(6-Methoxy-naphthalene-2-carbonyl)-piperidin-4-yl]-3-trifluoromethyl-benzoyl}-guanidine] | 390
17 | COc1ccc(C(=O)N2CCC(c3ccc(C(=O)NC(=N)N)cc3C(F)(F)F)CC2)cn1 [N-{4-[1-(6-Methoxy-pyridine-3-carbonyl)-piperidin-4-yl]-3-trifluoromethyl-benzoyl}-guanidine] | 58
18 | N=C(N)NC(=O)c1ccc(C2CCN(C(=O)c3ccc(-n4cccn4)nc3)CC2)c(C(F)(F)F)c1 [N-{4-[1-(6-Pyrazol-1-yl-pyridine-3-carbonyl)-piperidin-4-yl]-3-trifluoromethyl-benzoyl}-guanidine] | 92
19 | N=C(N)NC(=O)c1ccc(C2CCN(C(=O)c3ccc(N4CCCC4)nc3)CC2)c(C(F)(F)F)c1 [N-{4-[1-(6-Pyrrolidin-1-yl-pyridine-3-carbonyl)-piperidin-4-yl]-3-trifluoromethyl-benzoyl}-guanidine] | 75
20 | N=C(N)NC(=O)c1ccc(C2CCN(C(=O)c3ccc4ncsc4c3)CC2)c(C(F)(F)F)c1 [N-{4-[1-(Benzothiazole-6-carbonyl)-piperidin-4-yl]-3-trifluoromethyl-benzoyl}-guanidine] | 114
21 | N=C(N)NC(=O)c1ccc(C2CCN(C(=O)c3ccco3)CC2)c(C(F)(F)F)c1 [N-{4-[1-(Furan-2-carbonyl)-piperidin-4-yl]-3-trifluoromethyl-benzoyl}-guanidine] | 55
22 | N=C(N)NC(=O)c1ccc(C2CCN(C(=O)c3ccco3)C2)c(C(F)(F)F)c1 (stereo not drawn) [N-{4-[1-(Furan-2-carbonyl)-pyrrolidin-3-yl]-3-trifluoromethyl-benzoyl}-guanidine] | 11
23 | N=C(N)NC(=O)c1ccc(C2CCN(C(=O)c3cn4ccccc4n3)CC2)c(C(F)(F)F)c1 [N-{4-[1-(Imidazo[1,2-a]pyridine-2-carbonyl)-piperidin-4-yl]-3-trifluoromethyl-benzoyl}-guanidine] | 17
24 | N=C(N)NC(=O)c1ccc(C2CCN(C(=O)C3COCCN3)CC2)c(C(F)(F)F)c1 (stereo not drawn) [N-{4-[1-(Morpholine-3-carbonyl)-piperidin-4-yl]-3-trifluoromethyl-benzoyl}-guanidine] | 35
25 | N=C(N)NC(=O)c1ccc(C2CCN(C(=O)c3cccc4ccccc34)CC2)c(C(F)(F)F)c1 [N-{4-[1-(Naphthalene-1-carbonyl)-piperidin-4-yl]-3-trifluoromethyl-benzoyl}-guanidine] | 260

The next lines start with the values.

Row | IC50 [nM] | Structure (SMILES)
26 | 9 | N=C(N)NC(=O)c1ccc(C2CCN(C(=O)C3CCCCN3)CC2)c(C(F)(F)F)c1 (stereo not drawn) [N-{4-[1-(Piperidine-2-carbonyl)-piperidin-4-yl]-3-trifluoromethyl-benzoyl}-guanidine]
27 | 17 | N=C(N)NC(=O)c1ccc(C2CCN(C(=O)C3CCCNC3)CC2)c(C(F)(F)F)c1 (stereo not drawn) [N-{4-[1-(Piperidine-3-carbonyl)-piperidin-4-yl]-3-trifluoromethyl-benzoyl}-guanidine]
28 | 6 | N=C(N)NC(=O)c1ccc(C2CCN(C(=O)C3CCNCC3)CC2)c(C(F)(F)F)c1 [N-{4-[1-(Piperidine-4-carbonyl)-piperidin-4-yl]-3-trifluoromethyl-benzoyl}-guanidine]
29 | 10 | N=C(N)NC(=O)c1ccc(C2CCN(C(=O)c3ccccn3)CC2)c(C(F)(F)F)c1 [N-{4-[1-(Pyridine-2-carbonyl)-piperidin-4-yl]-3-trifluoromethyl-benzoyl}-guanidine]
30 | 10 | N=C(N)NC(=O)c1ccc(C2CCN(C(=O)c3cccnc3)CC2)c(C(F)(F)F)c1 [N-{4-[1-(Pyridine-3-carbonyl)-piperidin-4-yl]-3-trifluoromethyl-benzoyl}-guanidine]
31 | 9 | N=C(N)NC(=O)c1ccc(C2CCN(C(=O)c3ccncc3)CC2)c(C(F)(F)F)c1 [N-{4-[1-(Pyridine-4-carbonyl)-piperidin-4-yl]-3-trifluoromethyl-benzoyl}-guanidine]
32 | 19 | N=C(N)NC(=O)c1ccc(C2CCN(C(=O)c3ccncn3)CC2)c(C(F)(F)F)c1 [N-{4-[1-(Pyrimidine-4-carbonyl)-piperidin-4-yl]-3-trifluoromethyl-benzoyl}-guanidine]
33 | 11 | N=C(N)NC(=O)c1ccc(C2CCN(C(=O)C3CCCN3)CC2)c(C(F)(F)F)c1 (stereo not drawn) [N-{4-[1-(Pyrrolidine-2-carbonyl)-piperidin-4-yl]-3-trifluoromethyl-benzoyl}-guanidine]
34 | 5 | N=C(N)NC(=O)c1ccc(C2CCN(C(=O)C3CCNC3)CC2)c(C(F)(F)F)c1 (stereo not drawn) [N-{4-[1-(Pyrrolidine-3-carbonyl)-piperidin-4-yl]-3-trifluoromethyl-benzoyl}-guanidine]
35 | 70 | N=C(N)NC(=O)c1ccc(C2CCN(C(=O)c3cnc4ccccc4c3)CC2)c(C(F)(F)F)c1 [N-{4-[1-(Quinoline-3-carbonyl)-piperidin-4-yl]-3-trifluoromethyl-benzoyl}-guanidine]
36 | 46 | N=C(N)NC(=O)c1ccc(C2CCN(C(=O)c3cccc4ncccc34)CC2)c(C(F)(F)F)c1 [N-{4-[1-(Quinoline-5-carbonyl)-piperidin-4-yl]-3-trifluoromethyl-benzoyl}-guanidine]
37 | 64 | N=C(N)NC(=O)c1ccc(C2CCN(C(=O)c3ccc4ncccc4c3)CC2)c(C(F)(F)F)c1 [N-{4-[1-(Quinoline-6-carbonyl)-piperidin-4-yl]-3-trifluoromethyl-benzoyl}-guanidine]
38 | 61 | N=C(N)NC(=O)c1ccc(C2CCN(C(=O)C3CCOCC3)CC2)c(C(F)(F)F)c1 [N-{4-[1-(Tetrahydro-pyran-4-carbonyl)-piperidin-4-yl]-3-trifluoromethyl-benzoyl}-guanidine]
39 | 18 | N=C(N)NC(=O)c1ccc(C2CCN(C(=O)c3cscn3)CC2)c(C(F)(F)F)c1 [N-{4-[1-(Thiazole-4-carbonyl)-piperidin-4-yl]-3-trifluoromethyl-benzoyl}-guanidine]
